Patent publication US6489331B1, “Remedies for diabetes” (Kyowa Hakko Kogyo Co., Ltd., priority 1998, dated 2002)
Where a name gives a salt, the structure may show the parent alone.

system: not given; experiment: not given; settings: not given

Row | SMILES | melting point [°C]
1 | CCCN1C(=O)N2C[C@H](C(C)C)N=C2c2[nH]c(C3CCCC3)nc21.Cl | 109 to 112
2 | CCCCC1CN2C(=O)N(CCC)c3nc(C4CCCC4)[nH]c3C2=N1.Cl (stereo not drawn) | 146 to 148
3 | CCCN1C(=O)N2CC(Cc3ccc([N+](=O)[O-])cc3)N=C2c2[nH]c(C3CCCC3)nc21.Cl (stereo not drawn) | 215 to 217
4 | CCCN1C(=O)N2C[C@@H](Cc3ccccc3)N=C2c2c1ncn2Cc1ccccc1.Cl | 198 to 200
5 | CCCc1nc2c([nH]1)C1=NC(Cc3ccc(Cl)cc3)CN1C(=O)N2CCC.Cl (stereo not drawn) | 191 to 192
6 | CCCN1C(=O)N2CC(Cc3ccc(Cl)cc3)N=C2c2[nH]c(C3CCC3)nc21.Cl (stereo not drawn) | 214 to 215
7 | CCCc1nc2c([nH]1)C1=NC(Cc3ccc(F)cc3)CN1C(=O)N2CCC.Cl (stereo not drawn) | 199 to 200
8 | CCCCc1nc2c([nH]1)C1=NC(Cc3ccc(F)cc3)CN1C(=O)N2CCC.Cl (stereo not drawn) | 193 to 196
9 | CCCc1nc2c([nH]1)C1=NC(Cc3cccc(F)c3)CN1C(=O)N2CCC.Cl (stereo not drawn) | 139 to 140
10 | CCCN1C(=O)N2CC(Cc3cccc(F)c3)N=C2c2[nH]c(C3CCC3)nc21.Cl (stereo not drawn) | 164 to 165
11 | CCCN1C(=O)N2CC(Cc3cccc(F)c3)N=C2c2[nH]c(CC(C)C)nc21 (stereo not drawn) | 186 to 187
12 | CCCN1C(=O)N2C[C@@H](C)N=C2c2[nH]c(C3CCCC3)nc21.Cl | 218 to 219
13 | CCCN1C(=O)N2CC(Cc3ccccc3F)N=C2c2[nH]c(CC(C)C)nc21 (stereo not drawn) | 159 to 160
14 | CCCN1C(=O)N2C[C@H](C(C)C)N=C2c2[nH]c(C(C)C)nc21.Cl | 156 to 157
15 | CCCN1C(=O)N2C[C@@H](C(C)C)N=C2c2[nH]c(C3CCCC3)nc21.Cl | 116 to 118
16 | CCCN1C(=O)N2CC(Cc3ccc(F)cc3)N=C2c2[nH]c(C3CCCC3)nc21 (stereo not drawn) (as salt: hydrochloride) [Compound 18, 2-cyclopentyl-8-(4-fluorobenzyl)-7,8-dihydro-4-propyl-1H-imidazo[2,1-i]purin-5(4H)-one hydrochloride] | 226 to 228
17 | CCCN1C(=O)N2CC(Cc3ccc(Cl)cc3)N=C2c2[nH]c(C3CCCC3)nc21 (stereo not drawn) (as salt: hydrochloride) [Compound 20, 8-(4-chlorobenzyl)-2-cyclopentyl-7,8-dihydro-4-propyl-1H-imidazo[2,1-i]purin-5(4H)-one hydrochloride] | 222 to 224
18 | CCCN1C(=O)N2CC(Cc3ccc(Br)cc3)N=C2c2[nH]c(C3CCCC3)nc21 (stereo not drawn) (as salt: hydrochloride) [Compound 23, 8-(4-bromobenzyl)-2-cyclopentyl-7,8-dihydro-4-propyl-1H-imidazo[2,1-i]purin-5(4H)-one hydrochloride] | 184 to 186
19 | CCCN1C(=O)N2CC(CCc3ccccc3)N=C2c2[nH]c(C3CCCC3)nc21 (stereo not drawn) (as salt: hydrochloride) [Compound 31, 2-cyclopentyl-7,8-dihydro-8-phenethyl-4-propyl-1H-imidazo[2,1-i]purin-5(4H)-one hydrochloride] | 171 to 173
20 | CCCc1nc2c([nH]1)C1=N[C@H](Cc3ccccc3)CN1C(=O)N2CCC (as salt: hydrochloride) [Compound 35, (R)-8-benzyl-7,8-dihydro-2,4-dipropyl-1H-imidazo[2,1-i]purin-5(4H)-one hydrochloride] | 195 to 197
21 | CCCN1C(=O)N2C[C@@H](Cc3ccccc3)N=C2c2[nH]c(C3CCC3)nc21 (as salt: hydrochloride) [Compound 37, (R)-8-benzyl-2-cyclobutyl-7,8-dihydro-4-propyl-1H-imidazo[2,1-i]purin-5(4H)-one hydrochloride] | 214 to 216
22 | CCCN1C(=O)N2C[C@@H](Cc3ccccc3)N=C2c2[nH]c(C(C)(C)C)nc21 (as salt: hydrochloride) [Compound 43, (R)-8-benzyl-2-tert-butyl-7,8-dihydro-4-propyl-1H-imidazo[2,1-i]purin-5(4H)-one hydrochloride] | 220 to 222
23 | CCCN1C(=O)N2CC(Cc3ccc(F)cc3)N=C2c2[nH]c(C3CCCCC3)nc21 (stereo not drawn) (as salt: hydrochloride) [Compound 50, 2-cyclohexyl-8-(4-fluorobenzyl)-7,8-dihydro-4-propyl-1H-imidazo[2,1-i]purin-5(4H)-one hydrochloride] | 237 to 239
24 | CCCN1C(=O)N2CC(Cc3cc(Cl)ccc3Cl)N=C2c2[nH]c(C3CCCC3)nc21 (stereo not drawn) (as salt: hydrochloride) [Compound 65, 2-cyclopentyl-8-(2,5-dichlorobenzyl)-7,8-dihydro-4-propyl-1H-imidazo[2,1-i]purin-5(4H)-one hydrochloride] | 172 to 173
25 | CCCN1C(=O)N2C[C@H](C(C)(C)C)N=C2c2[nH]c(C3CCCC3)nc21.Cl [Compound 12, (S)-8-tert-butyl-2-cyclopentyl-7,8-dihydro-4-propyl-1H-imidazo[2,1-i]purin-5(4H)-one hydrochloride] | 184 to 186
26 | CCCN1C(=O)N2C[C@@H](Cc3ccc(F)cc3)N=C2c2[nH]c(-c3ccoc3)nc21 [Compound 54, (R)-8-(4-fluorobenzyl)-2-(3-furyl)-7,8-dihydro-4-propyl-1H-imidazo[2,1-i]purin-5(4H)-one] | 149 to 150
27 | CCCN1C(=O)N2C[C@H](C(C)(C)C)N=C2c2[nH]c(-c3ccoc3)nc21 [Compound 67, (S)-8-tert-butyl-2-(3-furyl)-7,8-dihydro-4-propyl-1H-imidazo[2,1-i]purin-5(4H)-one] | 204 to 206

system: Wistar male rats; experiment: not given; settings: 1 mg/kg, iv

Row | SMILES | % Ratio based on control (area of plasma insulin) [%]
28 | CCCN1C(=O)N2CC(Cc3cccc(F)c3)N=C2c2[nH]c(C3CCCC3)nc21 (stereo not drawn) [Compound 19, 2-cyclopentyl-8-(3-fluorobenzyl)-7,8-dihydro-4-propyl-1H-imidazo[2,1-i]purin-5(4H)-one hydrochloride] | 291 ± 42

same assay, conditions: 1 mg/kg, iv; after glucose-loading (10 mg/kg iv)

Row | SMILES | Area of plasma insulin, test compound-administered group [ng·s/mL]
29 | CCCN1C(=O)N2CC(Cc3cccc(F)c3)N=C2c2[nH]c(C3CCCC3)nc21 (stereo not drawn) [Compound 19, 2-cyclopentyl-8-(3-fluorobenzyl)-7,8-dihydro-4-propyl-1H-imidazo[2,1-i]purin-5(4H)-one hydrochloride] | 13.41 ± 1.95

system: MIN6 cell; experiment: Insulin secretion enhancing action in cultured β-cell (MIN6); assay type: cell-based; settings: in the presence of 14.5 mM glucose; drug concentration 0.1 μM
Method: Culture of the MIN6 cells and insulin secretion test utilizing the MIN6 cells were performed basically according to the methods described in literature (Ishihara et al., Diabetologia, vol. 36, pp.1139-1145, 1993). The effect of a compound on the insulin secretion in the presence of 14.5 mM glucose was determined by measuring insulin amounts in cell culture supernatants collected as follows. MIN6 cells cultured on a 24-well plate were washed twice by using 1 ml of Buffer A (119 mM sodium chloride, 4.74 mM potassium chloride, 2.54 mM calcium chloride, 1.19 mM magnesium sulfate, 1.19 mM potassium dihydrogenphosphate, 10 mM 2-[4-(2-hydroxyethyl)-1-piperazinyl]ethanesulfonic acid, 0.1% bovine serum albumin, pH 7.3) containing 2 mM glucose, and then were incubated in 1 ml of Buffer A containing 2 mM glucose at 37° C. for 45 minutes. After the incubation, the culture supernatant was changed to Buffer A (0.9 ml) containing a test compound at various concentrations and 2 mM glucose, and the cells were further incubated at 37° C. for 15 minutes. The MIN6 cells were stimulated with glucose by the addition of Buffer A (0.1 ml) containing 127 mM glucose to the culture (final glucose concentration: 14.5 mM). After the stimulation, the cells were further incubated at 37° C. for 45 minutes, and then the culture supernatant was collected.
Separately, the effect of a compound on the insulin secretion in the presence of 5 mM glucose was determined by measuring insulin amounts in cell culture supernatants collected as follows. MIN6 cells cultured on a 24-well plate were washed twice by using 1 ml of Buffer A containing 5 mM glucose, and then the culture supernatant was changed to Buffer A (0.9 ml) containing a test compound at various concentrations and 5 mM glucose. Then, the cells were incubated at 37° C. for 45 minutes (final glucose concentration: 5 mM), and the culture supernatant was collected.
After the culture supernatant was diluted with a phosphate buffer containing 1% bovine serum albumin, 0.1% Tween 20, 0.12% disodium ethylenediaminetetraacetate and 0.1% sodium azide, antibody-reactive insulin secreted in the culture supernatant was quantified by enzyme immunoassay or radio immunoassay. […] The results are indicated as averages (avg) for 3 to 4 samples with standard error values (se).

Row | SMILES | Amount of secreted insulin (ng/ml) avg [ng/mL]
30 | COc1ccc(Cl)cc1C(=O)NCCc1ccc(S(=O)(=O)NC(=O)NC2CCCCC2)cc1 [Glibenclamide, reference compound] | 177.8

same assay, conditions: in the presence of 14.5 mM glucose; drug concentration 1.0 μM

Row | SMILES | Amount of secreted insulin (ng/ml) avg [ng/mL]
31 | CC(C)[C@H]1CC[C@H](C(=O)N[C@H](Cc2ccccc2)C(=O)O)CC1 [AY4166, AY-4166, reference compound] | 195.1
32 | CCCN1C(=O)N2C[C@H](C(C)(C)C)N=C2c2[nH]c(C3CCCC3)nc21.Cl [Compound 12, (S)-8-tert-butyl-2-cyclopentyl-7,8-dihydro-4-propyl-1H-imidazo[2,1-i]purin-5(4H)-one hydrochloride] | 227.8
33 | CCCN1C(=O)N2CC(Cc3ccc(F)cc3)N=C2c2[nH]c(C3CCCC3)nc21 (stereo not drawn) [Compound 18, 2-cyclopentyl-8-(4-fluorobenzyl)-7,8-dihydro-4-propyl-1H-imidazo[2,1-i]purin-5(4H)-one hydrochloride] | 181.9
34 | CCCN1C(=O)N2CC(Cc3cccc(F)c3)N=C2c2[nH]c(C3CCCC3)nc21 (stereo not drawn) [Compound 19, 2-cyclopentyl-8-(3-fluorobenzyl)-7,8-dihydro-4-propyl-1H-imidazo[2,1-i]purin-5(4H)-one hydrochloride] | 223.8
35 | CCCN1C(=O)N2CC(Cc3ccc(Cl)cc3)N=C2c2[nH]c(C3CCCC3)nc21 (stereo not drawn) [Compound 20, 8-(4-chlorobenzyl)-2-cyclopentyl-7,8-dihydro-4-propyl-1H-imidazo[2,1-i]purin-5(4H)-one hydrochloride] | 235.9
36 | CCCN1C(=O)N2C[C@@H](Cc3ccccc3)N=C2c2[nH]c(C3CCC3)nc21 [Compound 37, (R)-8-benzyl-2-cyclobutyl-7,8-dihydro-4-propyl-1H-imidazo[2,1-i]purin-5(4H)-one hydrochloride] | 202.8
37 | CCCN1C(=O)N2C[C@@H](Cc3ccccc3)N=C2c2[nH]c(C(C)(C)C)nc21 [Compound 43, (R)-8-benzyl-2-tert-butyl-7,8-dihydro-4-propyl-1H-imidazo[2,1-i]purin-5(4H)-one hydrochloride] | 199.1
38 | CCCN1C(=O)N2CC(Cc3ccc(F)cc3)N=C2c2[nH]c(C3CCCCC3)nc21 (stereo not drawn) [Compound 50, 2-cyclohexyl-8-(4-fluorobenzyl)-7,8-dihydro-4-propyl-1H-imidazo[2,1-i]purin-5(4H)-one hydrochloride] | 209.5
39 | CCCN1C(=O)N2C[C@@H](Cc3ccc(F)cc3)N=C2c2[nH]c(-c3ccoc3)nc21 [Compound 54, (R)-8-(4-fluorobenzyl)-2-(3-furyl)-7,8-dihydro-4-propyl-1H-imidazo[2,1-i]purin-5(4H)-one] | 216.1
40 | CCCN1C(=O)N2CC(Cc3cc(Cl)ccc3Cl)N=C2c2[nH]c(C3CCCC3)nc21 (stereo not drawn) [Compound 65, 2-cyclopentyl-8-(2,5-dichlorobenzyl)-7,8-dihydro-4-propyl-1H-imidazo[2,1-i]purin-5(4H)-one hydrochloride] | 207.8

same assay, conditions: low glucose concentration (5 mM); controls for comparison

Row | SMILES | insulin secretion enhancing action at low glucose
41 | CC(C)[C@H]1CC[C@H](C(=O)N[C@H](Cc2ccccc2)C(=O)O)CC1 [AY4166, AY-4166, reference compound] | showed marked secretion enhancing action
42 | COc1ccc(Cl)cc1C(=O)NCCc1ccc(S(=O)(=O)NC(=O)NC2CCCCC2)cc1 [Glibenclamide, reference compound] | showed marked secretion enhancing action
